Assay results: publication PMC8604788 (ACS chemical biology, 2021)
pIC50: −log10 of the molar value.

Molecular target: T1, proline utilization A (SmPutA), bifunctional PRODH-GSALDH enzyme (Sinorhizobium meliloti, UniProt F7X6I3)
T1 sequence (F7X6I3 1-1233): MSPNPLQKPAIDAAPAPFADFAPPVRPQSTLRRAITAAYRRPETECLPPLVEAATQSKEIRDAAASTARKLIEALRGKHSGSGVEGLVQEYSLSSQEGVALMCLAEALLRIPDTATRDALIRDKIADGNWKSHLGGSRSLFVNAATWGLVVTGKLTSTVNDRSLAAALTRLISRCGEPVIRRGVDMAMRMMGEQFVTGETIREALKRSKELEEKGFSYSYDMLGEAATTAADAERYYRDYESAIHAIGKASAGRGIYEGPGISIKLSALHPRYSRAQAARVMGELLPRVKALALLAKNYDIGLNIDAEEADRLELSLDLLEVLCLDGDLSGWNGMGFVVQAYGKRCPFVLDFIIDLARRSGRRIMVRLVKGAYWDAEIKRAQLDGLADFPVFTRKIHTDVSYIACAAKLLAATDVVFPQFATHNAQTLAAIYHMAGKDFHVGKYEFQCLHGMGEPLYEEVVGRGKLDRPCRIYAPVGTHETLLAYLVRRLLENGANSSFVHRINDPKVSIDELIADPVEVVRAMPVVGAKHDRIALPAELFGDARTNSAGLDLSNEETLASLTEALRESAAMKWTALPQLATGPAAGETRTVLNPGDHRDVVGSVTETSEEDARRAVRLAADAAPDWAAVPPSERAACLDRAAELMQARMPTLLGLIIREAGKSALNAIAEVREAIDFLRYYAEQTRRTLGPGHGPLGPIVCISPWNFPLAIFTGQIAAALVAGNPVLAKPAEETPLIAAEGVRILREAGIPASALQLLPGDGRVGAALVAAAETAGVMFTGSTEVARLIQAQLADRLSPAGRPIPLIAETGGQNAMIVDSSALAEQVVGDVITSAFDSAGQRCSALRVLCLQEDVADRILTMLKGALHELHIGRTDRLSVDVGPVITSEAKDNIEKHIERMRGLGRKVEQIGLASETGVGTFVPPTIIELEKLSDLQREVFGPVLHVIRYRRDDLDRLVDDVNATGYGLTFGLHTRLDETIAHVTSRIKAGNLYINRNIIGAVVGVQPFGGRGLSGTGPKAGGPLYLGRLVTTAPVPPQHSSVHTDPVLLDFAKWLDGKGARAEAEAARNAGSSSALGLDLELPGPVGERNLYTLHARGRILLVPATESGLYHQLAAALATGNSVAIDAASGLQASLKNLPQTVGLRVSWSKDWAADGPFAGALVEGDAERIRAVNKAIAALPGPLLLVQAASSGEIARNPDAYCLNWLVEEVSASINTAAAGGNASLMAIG
Test: X-ray crystal structures, noncovalent in the dark
Assay type: biochemical

pIC50: 4.65
SMILES: O=C(O)C1SCCS1 [compound 4, 1,3-dithiolane-2-carboxylic acid]
